One data set relates to Salmonella enterica. Put plainly: microbe, parasite or virus in culture. It counts as cell-based. The note with it: Salmonella enterica; MHB medium. In outline:
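Broth microdilution per modified NCCLS protocol: 5 × 10^5 CFU/mL bacteria exposed to serial peptide concentrations, 37 ± 2°C for 16 to 20 h. MIC = lowest concentration giving clear wells; clear wells plated on Mueller-Hinton agar overnight at 37 ± 2°C, MBC = lowest concentration with no growth. Serum sensitivity tested in medium with 50% human serum.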

The test system of a further data set is human red blood cells. It counts as cell-based. As to the method:
The hemolytic assay was performed after approval from the institutional ethics committee (Academia Sinica Institutional Review Board [IRB]; ID no. AS-IRB02-111075). Blood was collected from healthy humans, and 50 μL of a 2% blood cell suspension in normal saline was treated with an equal volume of peptide at different concentrations. The mixture was then incubated at 37 ± 2°C for 1 h. Next, the cell suspension was centrifuged at 1,000 × g for 10 min. Percent hemolysis was estimated by the absorbance of treated and control supernatant samples at 540 nm ([23], [44]).

Data set [1] relates to A. baumannii. Put plainly: PI membrane permeabilization assay. The note with it: 25 μM, 10^8 CFU/mL. Type of data set: cell-based, Acinetobacter baumannii. As to the method:
(§1) Mid-log-phase bacterial cells (A. baumannii) were resuspended in 10 mM PBS (pH 7.4) to a density of 10^8 CFU/mL. The cell suspension was supplemented with 25 mM glucose followed by 15 min incubation at 37°C. After the incubation, N-phenyl-1-naphthylamine dye was added to a final concentration of 10 μM. Next, 90 μL of bacterial cells was transferred to a 96-well black plate, and fluorescence was recorded for 40 min (excitation/emission: 350/420 nm). […] After this treatment, fluorescence was recorded for an additional 20 min ([53]). Data are presented as fluorescence values as a function of time. Permeabilization of blank- and test compound-treated cells was compared. For the PI membrane permeabilization assay, 10^8 bacterial cells (A. baumannii) were resuspended in MHB containing 20 μg/mL PI. […] Fluorescence was read (excitation/emission: 584/620 nm). Fluorescence values of blank- and compound-treated cells were graphed as a function of time ([54], [55]).

The subject of data set [2] is A. baumannii. Briefly: NPN membrane permeabilization assay. It counts as cell-based, Acinetobacter baumannii. The note with it: 25 μM, 10^8 CFU/mL. The procedure:
as §1

Data set [3] relates to A. baumannii. Briefly: DiBAC4(3) membrane depolarization assay. Type of data set: cell-based, Acinetobacter baumannii. The note with it: compared to the blank control. The procedure: Mid-log-phase A. baumannii bacterial cells were suspended in 10 mM PBS (pH 7.4) at a density of 10^8 CFU/mL. The cell suspension was then supplemented with 25 mM glucose, followed by 15 min incubation at 37°C. Then, the cell suspension was mixed with 500 nM DiBAC4(3) and incubated for 50 min. After incubation, 90 μL of the cell suspension was transferred to a 96-well plate, and fluorescence was recorded (excitation/emission: 480/520 nm) until the signal stabilized (~40 min). […] Data for blank- and compound-treated groups were compared by plotting fluorescence as function of time ([56]).

In brackets after ≈: the same amount, converted by molar mass. Bridge positions count the residues as written; N and C are the ends. Square brackets hold non-standard residues; d marks the D form. Peptide text beside a SMILES is read from it. R5 = C=CCCC[C@@](C)(N)C(=O)O

Take `C[C@@H](O)[C@H]1C(=O)N2C(C(=O)O)=C(S[C@@H]3CN[C@H](C(=O)N(C)C)C3)[C@H](C)[C@H]12` [Meropenem]: in the data set on Salmonella enterica, the MBC was 6.25 µM (≈ 2.4 µg/mL) and the MIC is 3.13 to 6.25 µM (≈ 1.2 to 2.4 µg/mL).
In turn, `CC[C@H](C)[C@H](NC(=O)[C@@H](NC(=O)[C@@H](N)Cc1ccccc1)[C@@H](C)CC)C(=O)N[C@]1(C)CCCC=CCCC[C@](C)(C(=O)NCC(=O)N[C@@H](CC(C)C)C(=O)N[C@@H](Cc2ccccc2)C(=O)N[C@@H](CCCCN)C(=O)N[C@@H](CCCCN)C(=O)N[C@@H](CCCCN)C(=O)N[C@@H](C)C(=O)NCC(=O)N[C@@H](C)C(=O)N[C@]2(C)CCCC=CCCC[C@](C)(C(=O)N[C@H](C(=O)N[C@@H](CCCCN)C(=O)N[C@@H](CCCCN)C(=O)O)[C@@H](C)CC)NC(=O)[C@H](CCCCN)NC(=O)[C@H](CCCCN)NC(=O)[C@H](CCCCN)NC2=O)NC(=O)[C@H](CO)NC(=O)[C@H](CCCCN)NC(=O)[C@H](CCCCN)NC1=O` [TP4-3] (H-FII[R5]KKS[R5]GLFKKKAGA[R5]KKK[R5]IKK-OH; staple 4-8, 18-22; N-terminus and C-terminus assumed) showed a 15% hemolysis concn in the data set with human red blood cells of more than 100 µM. In the data set on A. baumannii [1], the “PI fluorescence signal vs controls” value is reported as “approximately 3 fold”. The “NPN fluorescence signal vs controls” value in the data set on A. baumannii [2] was approximately 4 fold. Moreover, the “DiBAC4(3) fluorescence signal (membrane depolarization)” value with A. baumannii [3] is reported as “substantial rise in the fluorescence signal”.

(Values after paper PMC10101059, “Rational Design of Stapled Antimicrobial Peptides to Enhance Stability and In Vivo Potency against Polymicrobial Sepsis” (Microbiology Spectrum, 2023).)
